10 molecules from patent US20250213735A1, “NEUROPEPTIDE Y1 RECEPTOR (NPY1R) TARGETED THERAPEUTICS AND USES THEREOF” (Radionetics Oncology, Inc., priority 2023, published 2025) can be followed below.

One may read the pKi as −log10 of the Ki, conventionally taken in molar units.

pKi: −log10 of the molar value.

Sequence of hNPY1R (P25929 whole entry): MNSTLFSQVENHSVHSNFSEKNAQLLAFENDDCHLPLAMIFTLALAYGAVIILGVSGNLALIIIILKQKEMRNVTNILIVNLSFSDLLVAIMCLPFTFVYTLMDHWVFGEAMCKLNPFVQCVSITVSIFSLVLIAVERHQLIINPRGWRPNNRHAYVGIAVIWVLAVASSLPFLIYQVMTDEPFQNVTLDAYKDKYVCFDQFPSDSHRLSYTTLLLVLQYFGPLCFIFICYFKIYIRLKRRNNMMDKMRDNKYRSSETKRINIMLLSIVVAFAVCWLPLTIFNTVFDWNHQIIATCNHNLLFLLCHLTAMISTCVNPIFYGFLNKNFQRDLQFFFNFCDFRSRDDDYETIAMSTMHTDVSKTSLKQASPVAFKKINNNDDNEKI

This assay concerns the target hNPY1R (Homo sapiens (Human), UniProt P25929). Description: NPY1R binding assay (SK-N-MC membrane, [125I]-Peptide YY competition).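 Further: bound radioligand separated by filtration over GF/C filter plates and counted, Ki obtained by non-linear regression.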 Conditions: crude SK-N-MC membranes endogenously expressing NPY1R; [125I]-Peptide YY (human) 0.05 nM; 120 min at room temperature; read-out: hNPY1R binding Ki.
Procedure: Crude membrane fractions are prepared from SK-N-MC cells endogenously expressing the NPY1R receptor. The cells are grown to 85-100% confluence on standard tissue culture dishes in Eagle's Minimum Essential Medium supplemented with 10% dialyzed FBS. To prepare membranes, cells are scraped and collected in 1× Dulbecco's phosphate buffered saline and then pelleted at 1000 RPM's. The cell pellet is reconstituted in membrane preparation buffer (20 mM HEPES, 6 mM MgCl2 and 1 mM EGTA, protease inhibitor tablets, pH 7.4) and placed in a cell disruption vessel at 1000 PSI for 30 minutes on ice. The pressurized contents are then released and spun down at 1000 RPMs and the supernatant is collected and further centrifuged at 15,000 RPMs to pellet the membranes. The membrane pellet is resuspended in membrane preparation buffer, snap frozen and stored at −80° C. for later use.
Assay contents are then filtered through unifilter GF/C microplates and washed with 9×400 μl of cold wash buffer (25 mM HEPES, 5 mM MgCl2, 1 mM CaCl2), 500 mM NaCl, 0.1% Tween-20, pH 7.4). Assay plates are read using a Top Count NXT and Ki values for compounds are determined using a GraphPad Prism 6 non-linear regression analysis.
As for `CCC(=O)NCCNC(=O)/N=C(/N)NCCC[C@@H](NC(=O)[C@H](c1cccc(NCCCNC(=O)CCOCCOCCOCCOCCOCCOCCNC(=O)CN2CCN(CC(=O)O)CCN(CC(=O)O)CCN(CC(=O)O)CC2)c1)N1Cc2ccccc2C1)C(=O)NCc1ccc(O)cc1` [compound 23, 2,2′,2″-(10-(28-((3-((1S,4R,Z)-9-amino-4-((4-hydroxybenzyl)carbamoyl)-1-(isoindolin-2-yl)-2,11,16-trioxo-3,8,10,12,15-pentaazaoctadec-9-en-1-yl)phenyl)amino)-2,24-dioxo-6,9,12,15,18,21-hexaoxa-3,25-diazaoctacosyl)-1,4,7,10-tetraazacyclododecane-1,4,7-triyl)triacetic acid], the pKi was above 8.00.

Regarding `CCC(=O)NCCNC(=O)/N=C(/N)NCCC[C@@H](NC(=O)[C@H](c1cccc(NCCCNC(=O)[C@H](N)CCCCNC(=O)CN2CCN(CC(=O)O)CCN(CC(=O)O)CCN(CC(=O)O)CC2)c1)N1Cc2ccccc2C1)C(=O)NCc1ccc(O)cc1` [compound 25, 2,2′,2″-(10-(2-(((R)-5-amino-6-((3-((3-((1S,4R,Z)-9-amino-4-((4-hydroxybenzyl)carbamoyl)-1-(isoindolin-2-yl)-2,11,16-trioxo-3,8,10,12,15-pentaazaoctadec-9-en-1-yl)phenyl)amino)propyl)amino)-6-oxohexyl)amino)-2-oxoethyl)-1,4,7,10-tetraazacyclododecane-1,4,7-triyl)triacetic acid], the negative-log Ki (pKi) is above 8.00.

In the case of `CCC(=O)NCCNC(=O)/N=C(/N)NCCC[C@@H](NC(=O)[C@H](c1cccc(NCCCNC(=O)CCC(=O)NCCNC(=O)CN2CCN(CC(=O)O)CCN(CC(=O)O)CCN(CC(=O)O)CC2)c1)N1Cc2ccccc2C1)C(=O)NCc1ccc(O)cc1` [compound 26, 2,2′,2″-(10-(2-((2-(4-((3-((3-((1S,4R,Z)-9-amino-4-((4-hydroxybenzyl)carbamoyl)-1-(isoindolin-2-yl)-2,11,16-trioxo-3,8,10,12,15-pentaazaoctadec-9-en-1-yl)phenyl)amino)propyl)amino)-4-oxobutanamido)ethyl)amino)-2-oxoethyl)-1,4,7,10-tetraazacyclododecane-1,4,7-triyl)triacetic acid], the pKi is above 8.00.

For `CCC(=O)NCCNC(=O)/N=C(/N)NCCC[C@@H](NC(=O)[C@H](c1cccc(NCCCNC(=O)CCCCCNC(=O)NCCONC(=O)CN2CCN(CC(=O)O)CCN(CC(=O)O)CCN(CC(=O)O)CC2)c1)N1Cc2ccccc2C1)C(=O)NCc1ccc(O)cc1` [compound 27, 2,2′,2″-(10-(19-((3-((1S,4R,Z)-9-amino-4-((4-hydroxybenzyl)carbamoyl)-1-(isoindolin-2-yl)-2,11,16-trioxo-3,8,10,12,15-pentaazaoctadec-9-en-1-yl)phenyl)amino)-2,8,15-trioxo-4-oxa-3,7,9,16-tetraazanonadecyl)-1,4,7,10-tetraazacyclododecane-1,4,7-triyl)triacetic acid], the pKi was above 8.00.

`CCC(=O)NCCNC(=O)/N=C(/N)NCCC[C@@H](NC(=O)[C@H](c1cccc(NCCCNC(=O)CCCCCNC(=O)CN2CCC(NC(=O)CN3CCN(CC(=O)O)CCN(CC(=O)O)CCN(CC(=O)O)CC3)CC2)c1)N1Cc2ccccc2C1)C(=O)NCc1ccc(O)cc1` [compound 28, 2,2′,2″-(10-(2-((1-(2-((6-((3-((3-((1S,4R,Z)-9-amino-4-((4-hydroxybenzyl)carbamoyl)-1-(isoindolin-2-yl)-2,11,16-trioxo-3,8,10,12,15-pentaazaoctadec-9-en-1-yl)phenyl)amino)propyl)amino)-6-oxohexyl)amino)-2-oxoethyl)piperidin-4-yl)amino)-2-oxoethyl)-1,4,7,10-tetraazacyclododecane-1,4,7-triyl)triacetic acid]: the pKi was above 8.00.

`CCC(=O)NCCNC(=O)/N=C(/N)NCCC[C@@H](NC(=O)[C@H](c1cccc(NCCCNC(=O)C[C@H](O)C[C@H](O)CCNC(=O)CN2CCN(CC(=O)O)CCN(CC(=O)O)CCN(CC(=O)O)CC2)c1)N1Cc2ccccc2C1)C(=O)NCc1ccc(O)cc1` [compound 29, 2,2′,2″-(10-(2-(((3R,5R)-7-((3-((3-((1S,4R,Z)-9-amino-4-((4-hydroxybenzyl)carbamoyl)-1-(isoindolin-2-yl)-2,11,16-trioxo-3,8,10,12,15-pentaazaoctadec-9-en-1-yl)phenyl)amino)propyl)amino)-3,5-dihydroxy-7-oxoheptyl)amino)-2-oxoethyl)-1,4,7,10-tetraazacyclododecane-1,4,7-triyl)triacetic acid]: the pKi is above 8.00.

In the case of `CCC(=O)NCCNC(=O)/N=C(/N)NCCC[C@@H](NC(=O)[C@H](c1cccc(NCCCNC(=O)[C@@H](CO)NC(=O)CCNC(=O)CN2CCN(CC(=O)O)CCN(CC(=O)O)CCN(CC(=O)O)CC2)c1)N1Cc2ccccc2C1)C(=O)NCc1ccc(O)cc1` [compound 30, 2,2′,2″-(10-(2-((3-(((R)-1-((3-((3-((1S,4R,Z)-9-amino-4-((4-hydroxybenzyl)carbamoyl)-1-(isoindolin-2-yl)-2,11,16-trioxo-3,8,10,12,15-pentaazaoctadec-9-en-1-yl)phenyl)amino)propyl)amino)-3-hydroxy-1-oxopropan-2-yl)amino)-3-oxopropyl)amino)-2-oxoethyl)-1,4,7,10-tetraazacyclododecane-1,4,7-triyl)triacetic acid], the pKi was above 8.00.

In the case of `CCC(=O)NCCNC(=O)/N=C(/N)NCCC[C@@H](NC(=O)[C@H](c1ccccc1)N1Cc2cccc(NCCCNC(=O)CCCCCNC(=O)CN3CCN(CC(=O)O)CCN(CC(=O)O)CCN(CC(=O)O)CC3)c2C1)C(=O)NCc1c(F)cc(O)cc1F` [compound 33, 2,2′,2″-(10-(2-((6-((3-((2-((1S,4R,Z)-9-amino-4-((2,6-difluoro-4-hydroxybenzyl)carbamoyl)-2,11,16-trioxo-1-phenyl-3,8,10,12,15-pentaazaoctadec-9-en-1-yl)isoindolin-4-yl)amino)propyl)amino)-6-oxohexyl)amino)-2-oxoethyl)-1,4,7,10-tetraazacyclododecane-1,4,7-triyl)triacetic acid], the pKi was above 8.00.

On to `CCC(=O)NCCNC(=O)/N=C(/N)NCCC[C@@H](NC(=O)[C@H](c1ccccc1)N1Cc2cccc(NCCCNc3c(NCCCCCCNC(=O)CN4CCN(CC(=O)O)CCN(CC(=O)O)CCN(CC(=O)O)CC4)c(=O)c3=O)c2C1)C(=O)NCc1c(F)cc(O)cc1F` [compound 34, 2,2′,2″-(10-(2-((6-((2-((3-((2-((1S,4R,Z)-9-amino-4-((2,6-difluoro-4-hydroxybenzyl)carbamoyl)-2,11,16-trioxo-1-phenyl-3,8,10,12,15-pentaazaoctadec-9-en-1-yl)isoindolin-4-yl)amino)propyl)amino)-3,4-dioxocyclobut-1-en-1-yl)amino)hexyl)amino)-2-oxoethyl)-1,4,7,10-tetraazacyclododecane-1,4,7-triyl)triacetic acid], for which the pKi was above 8.00.

For the molecule `CCC(=O)NCCNC(=O)/N=C(/N)NCCC[C@@H](NC(=O)[C@H](c1ccc(OCCCN2CCN(C3CCN(C(=O)CCCCCNC(=O)CN4CCN(CC(=O)O)CCN(CC(=O)O)CCN(CC(=O)O)CC4)CC3)CC2)cc1)N1Cc2ccccc2C1)C(=O)NCc1c(F)cc(O)cc1F` [compound 35, 2,2′,2″-(10-(2-((6-(4-(4-(3-(4-((1S,4R,Z)-9-amino-4-((2,6-difluoro-4-hydroxybenzyl)carbamoyl)-1-(isoindolin-2-yl)-2,11,16-trioxo-3,8,10,12,15-pentaazaoctadec-9-en-1-yl)phenoxy)propyl)piperazin-1-yl)piperidin-1-yl)-6-oxohexyl)amino)-2-oxoethyl)-1,4,7,10-tetraazacyclododecane-1,4,7-triyl)triacetic acid], the negative logarithm of the Ki (pKi) was above 8.00.
